Results reported in article PMC5301048, “Selection and early clinical evaluation of the brain‐penetrant 11β‐hydroxysteroid dehydrogenase type 1 (11β‐HSD1) inhibitor UE2343 (Xanamem™)” (British Journal of Pharmacology, 2017).
Read-outs that look alike come from different tables or passages of the source.

Key:
human 11β‐HSD1 = target: T1, human 11β‐HSD1 (Homo sapiens, UniProt P28845); assay: Inhibition of human 11β-HSD1 in stably transfected HEK293 cells; format: cell-based
T1 construct: a construct containing the full‐length gene coding for the human 11β‐HSD1 enzyme; expressed in transfected cells; host or cells: HEK293
T1 sequence (P28845 whole entry): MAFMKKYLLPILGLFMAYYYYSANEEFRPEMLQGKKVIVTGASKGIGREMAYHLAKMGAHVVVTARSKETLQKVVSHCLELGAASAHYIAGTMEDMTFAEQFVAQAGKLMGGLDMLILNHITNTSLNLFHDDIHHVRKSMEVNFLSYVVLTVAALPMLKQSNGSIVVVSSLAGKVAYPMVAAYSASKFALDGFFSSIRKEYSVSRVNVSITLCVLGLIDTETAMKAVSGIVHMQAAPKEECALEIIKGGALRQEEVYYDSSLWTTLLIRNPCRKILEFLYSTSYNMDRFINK
Experimental: Inhibition of human 11β‐HSD1 was determined in HEK293 cells stably transfected with a construct containing the full‐length gene coding for the human 11β‐HSD1 enzyme according to the protocol described by Sooy et al., 2010.

11β‐HSD1 in the liver = assay: Single ascending dose study, urinary THFs/THE ratio; format: in vivo; settings: human
Experimental: A double‐blind, randomized, placebo‐controlled single ascending dose study was carried out at Simbec Research Ltd, Merthyr Tydfil, UK. Each cohort consisted of six healthy male subjects and two females of non‐child bearing potential. Two male ‘dose leader’ subjects (1 active : 1 placebo) were dosed first in each cohort. The remainder of the cohort (5 active : 1 placebo) were dosed 24 h later. Dose cohorts were 2, 5, 10, 18, 25 and 35 mg. Safety, pharmacokinetic and pharmacodynamic assessments were made at pre‐determined time‐points during each part of the study. Dose escalation was dependent upon satisfactory review of the blinded safety (up to Day 6) and pharmacokinetic (up to 24 h post‐dose) data from the preceding cohort.
Laboratory evaluation of clinical safety parameters was carried out using standard validated methods. Measurement of plasma pharmacodynamic markers [adrenocorticotropic hormone (ACTH), cortisol, 4‐androstenedione, testosterone and dehydroepiandrosterone sulphate (DHEA‐s)] was carried out using commercially available kits. Each method was fully validated prior to analysis. Urinary steroid metabolites were measured according to established methods (Boonen et al., 2013). UE2343 levels in plasma, urine and CSF was determined by LC–MS/MS using fully validated methods.
The data and statistical analysis comply with the recommendations on experimental design and analysis in pharmacology (Curtis et al., 2015). Levels of probability, P < 0.05 were deemed to constitute the threshold for statistical significance. Pharmacokinetic parameters, except Tmax (time of maximum observed drug concentration), are given as mean ± coefficient of variation (CV%). Tmax is given as median ± range. For each of the pharmacodynamic parameters [ACTH, cortisol, adrenal androgens, tetrahydrocortisols (THFs)/tetrahydrocortisone (THE) ratio], the maximum % change from baseline for each subject was subjected to ANOVA. For selected data, an additional covariate factor for the baseline was also included in the ANOVA/analysis of covariance (ANCOVA) model. Associated P‐values <0.05 for each comparison have been presented.
11β‐HSD1 is predominantly located in the liver and adipose tissue. Cortisol (F) and cortisone (E) are cleared from the liver via the enzymes 5α‐reductase and 3α‐HSD to generate tetrahydro (TH) metabolites that are eliminated in the urine. Measurement of urinary TH metabolite ratios thus provides a surrogate measure of 11β‐HSD1 inhibition in the liver (Best and Walker, 1997). Following a single dose of UE2343, there was a statistically significant reduction in the urinary THFs/THE ratio between 0 and 4 h at doses of 18, 25 and 35 mg, equating to a reduction of 58, 55 and 50% respectively (Figure 4A).

IC50 (human 11β‐HSD1; HEK293 cell IC50 in ng·mL^−1, read-out: IC50 value (11β‐HSD1) expressed as mass concentration (converted)): 23.6 nM | IC50 (human 11β‐HSD1; HEK293 cells, mean ± SD [n], read-out: Human 11β‐HSD1 IC50 in HEK293 cells): 24 ± 15 nM
Compound: O=C(c1csc(-c2cn[nH]c2)c1)N1C2CCC1CC(O)(c1ncccn1)C2 (stereo not drawn) [compound 4]
reduction in the urinary THFs/THE ratio (11β‐HSD1 in the liver; single dose 10 mg, 4–8 h): 79% | reduction in the urinary THFs/THE ratio (11β‐HSD1 in the liver; single dose 18 mg, 0–4 h): 58% | reduction in the urinary THFs/THE ratio (11β‐HSD1 in the liver; single dose 18 mg, 4–8 h): 86% | reduction in the urinary THFs/THE ratio (11β‐HSD1 in the liver; single dose 25 mg, 0–4 h): 55% | reduction in the urinary THFs/THE ratio (11β‐HSD1 in the liver; single dose 25 mg, 4–8 h): 83% | reduction in the urinary THFs/THE ratio (11β‐HSD1 in the liver; single dose 35 mg, 0–4 h): 50% | reduction in the urinary THFs/THE ratio (11β‐HSD1 in the liver; single dose 35 mg, 4–8 h): 83%
